Measured values from publication PMC6274353, “The Blood-Brain Barrier Permeability of Lignans and Malabaricones from the Seeds of Myristica fragrans in the MDCK-pHaMDR Cell Monolayer Model” (Molecules, 2016).

Columns and labels:
[1] = bidirectional transport across the MDCK-pHaMDR cell monolayer (in vitro BBB model); conditions: dog, MDCK-MDR1, pH 7.35
Procedure: (§1) The MDCK-pHaMDR cells were seeded at a density of about 8 × 10^4 cells/mL on the 12-well Transwell® plates. After an eight-day culture, the cells reached confluence and differentiation for the transport study.
(§2) On the 8th day, the monolayers were washed twice and shaken at 55 rpm for 30 min with HBSS at 37 °C. Then, the TEER was measured with an epithelial volt-ohm meter (EVOM; World Precision Instrument) to examine the monolayer's integrity. Only those with the TEER values above 1000 Ω·cm^2 were qualified for the transport.
(§3) The bidirectional transport assay was initiated by adding a test compound to either the apical (0.5 mL for apical to basolateral transport, A→B) or the basolateral (1.5 mL for basolateral to apical transport, B→A) side. After shaking at 55 rpm and 37 °C for a certain time, samples (A→B: 400 µL from the apical side and 1300 µL from the basolateral side; B→A: 450 µL from the apical side and 450 µL from the basolateral side) were collected, immediately frozen, lyophilized and preserved below –20 °C before analysis.
(§4) Papp of each compound was calculated based on the following equation: (1) Papp = (ΔQ/Δt)/(AC0) (cm/s) where ΔQ/Δt is the appearance rate of the test compound at the receiver side (µmol/s), C0 is the initial concentration of the test compound at the donor side (µM), and A is the membrane surface area (cm^2). All of the experiments were conducted in triplicate.

[2] = tested on: MDCK-pHaMDR cell monolayer; assay: as above; conditions: classed by Papp against caffeine and atenolol
Procedure: as §1, §2, §3, §4

P-glycoprotein (P-gp) = assay: in vitro; conditions: dog

| Structure (SMILES) | Papp A→B at 90 min, 100 µM [1] [×10⁻⁶ cm/s] | Papp B→A at 90 min, 100 µM [1] [×10⁻⁶ cm/s] | Papp at 90 min, 100 µM [1] [×10⁻⁶ cm/s] | permeability (in words) [2] | Papp B→A (P-glycoprotein (P-gp); MDCK-MDR1) [×10⁻⁶ cm/s] | Papp B→A (P-glycoprotein (P-gp); MDCK-MDR1, with verapamil 100 µM) [×10⁻⁶ cm/s] | Papp [1] [×10⁻⁶ cm/s] |
| --- | --- | --- | --- | --- | --- | --- | --- |
| C/C=C/c1cc(OC)c2c(c1)[C@@H](C)[C@H](c1ccc3c(c1)OCO3)O2 [Compound 3, licarin B] | < 0.062 | < 0.06 | ≤ 0.01 | very poor permeability | – | – | – |
| COc1cc2c(cc1O)[C@H](c1ccc3c(c1)OCO3)[C@@H](C)[C@H](C)C2 [Compound 12, otobaphenol] | < 0.073 | < 0.07 | ≤ 0.01 | – | – | – | – |
| O=C(CCCCCCCCc1ccccc1)c1c(O)cccc1O [Compound 13, malabaricone A] | < 0.038 | < 0.037 | ≤ 0.01 | – | – | – | – |
| O=C(CCCCCCCCc1ccc(O)c(O)c1)c1c(O)cccc1O [Compound 15, malabaricone C] | 0.64 ± 0.07 | 0.63 ± 0.04 | ~0.1 | – | – | – | – |
| Cn1c(=O)c2c(ncn2C)n(C)c1=O [caffeine, reference compound] | – | – | – | – | – | – | 24.4 ± 1.1 |
| COC(=O)c1ccccc1-c1c2ccc(=N)cc-2oc2cc(N)ccc12 [rhodamin 123, rhodamine 123] | – | – | – | – | 3.31 ± 0.12 | 1.52 ± 0.08 | – |

More lines, main results first:

| Papp A→B at 90 min, 100 µM [1] [×10⁻⁶ cm/s] | Papp B→A at 90 min, 100 µM [1] [×10⁻⁶ cm/s] | Papp at 90 min, 100 µM [1] [×10⁻⁶ cm/s] | permeability (in words) [2] | Papp B→A (P-glycoprotein (P-gp); MDCK-MDR1) [×10⁻⁶ cm/s] | Papp B→A (P-glycoprotein (P-gp); MDCK-MDR1, with verapamil 100 µM) [×10⁻⁶ cm/s] | Structure (SMILES) | Papp [1] [×10⁻⁶ cm/s] |
| --- | --- | --- | --- | --- | --- | --- | --- |
| 2.43 ± 0.32 | 1.82 ± 0.18 | ~1 | – | – | – | C/C=C/c1cc(OC)c2c(c1)[C@@H](C)[C@H](c1ccc(O)c(OC)c1)O2 (racemic) [Compound 1, Dehydrodiisoeugenol] | – |
| < 0.057 | < 0.055 | ≤ 0.01 | very poor permeability | – | – | C/C=C/c1cc(OC)c2c(c1)[C@@H](C)[C@H](c1cc(OC)c3c(c1)OCO3)O2 [Compound 4, 3′-methoxylicarin B] | – |
| 10.9 ± 0.32 | 20.4 ± 0.97 | – | – | – | – | COc1cc([C@H]2O[C@@H](c3ccc(O)c(OC)c3)[C@@H](C)[C@@H]2C)ccc1O [Compound 8, verrucosin] | – |
| 10.4 ± 1.49 | 15 ± 1.27 | – | – | – | – | COc1cc([C@H]2O[C@@H](c3ccc(O)c(OC)c3)[C@H](C)[C@@H]2C)ccc1O [Compound 9, nectandrin B] | – |
| < 0.145 | < 0.14 | ~0.1 | – | – | – | COc1cc(CC(C)C(C)Cc2ccc(O)c(OC)c2)ccc1O (stereo not drawn) [Compound 10, dihydroguaiaretic acid] | – |
| < 0.075 | < 0.073 | ≤ 0.01 | – | – | – | COc1cc([C@H]2c3cc(O)c(OC)cc3C[C@@H](C)[C@@H]2C)ccc1O [Compound 11, guaiacin] | – |
